Data set [1] deals with patients with advanced solid tumors. Put plainly: phase I safety and tolerability (AEs, DLTs, MTD). It counts as in vivo. As to conditions: doses of 50-350 mg QD and 125-150 mg BID; up to 350 mg QD (formulation 2). The source says:
The primary objectives of this open-label, first-in-human phase I study (NCT02133157) were to determine MTD and the phase II dose of sulfatinib, and to evaluate the safety of sulfatinib in patients with advanced solid tumors. The secondary and exploratory objectives included evaluation of sulfatinib PK and preliminary anti-tumor activity. The study consisted of a dose-escalation phase (split into a single-dose period and continuous-dose period) and a tumor-specific expansion phase. Two sulfatinib formulations were used during the study: formulation 1 (5, 25, and 50 mg capsules) and formulation 2 (50 and 200 mg capsules). […]
During the dose-escalation phase, patients were given a single dose of sulfatinib and monitored for AEs for seven days. […] DLTs were assessed at the end of the 28-day period. […]
The study used a modified Fibonacci 3+3 dose-escalation design with at least three evaluable patients treated with each dose. […] If two or more of the first three or overall six patients experienced a DLT, the MTD was considered exceeded and the previous lower dose would be re-assessed to determine the MTD. […]
Safety and tolerability were assessed in all patients who received at least one dose of sulfatinib throughout the study. AEs were recorded throughout the study. […]

The subject of data set [2] is advanced solid tumors. Briefly: tumor response by RECIST Version 1.0. It counts as in vivo, human. As to the method: Patients with NETs were enrolled with priority as preliminary efficacy was shown in these tumor types in the dose-escalation stage. Tumor response (an exploratory endpoint) was assessed according to RECIST Version 1.0 and measured at baseline, at the end of every treatment cycle in the first four cycles, and every other cycle thereafter. […] Calculations of the following parameters were made: ORR (CR + PR); SD defined as ≥1 assessment of SD at least six weeks after study entry; DCR (CR + PR + SD). TTR, DoR and PFS were analyzed in the subgroup of patients with NET.

Data set [3] has as its target 278 other kinases. Briefly: kinase selectivity profile (broad kinase screening). It counts as biochemical. The text has this:
(§1) Table 1 Sulfatinib kinase selectivity profile | column: IC50 (μM)

In data set [4] the target is FGFR1 (Homo sapiens, UniProt P11362). Briefly: kinase selectivity profile. Format: biochemical.
FGFR1, sequence (P11362 22-822): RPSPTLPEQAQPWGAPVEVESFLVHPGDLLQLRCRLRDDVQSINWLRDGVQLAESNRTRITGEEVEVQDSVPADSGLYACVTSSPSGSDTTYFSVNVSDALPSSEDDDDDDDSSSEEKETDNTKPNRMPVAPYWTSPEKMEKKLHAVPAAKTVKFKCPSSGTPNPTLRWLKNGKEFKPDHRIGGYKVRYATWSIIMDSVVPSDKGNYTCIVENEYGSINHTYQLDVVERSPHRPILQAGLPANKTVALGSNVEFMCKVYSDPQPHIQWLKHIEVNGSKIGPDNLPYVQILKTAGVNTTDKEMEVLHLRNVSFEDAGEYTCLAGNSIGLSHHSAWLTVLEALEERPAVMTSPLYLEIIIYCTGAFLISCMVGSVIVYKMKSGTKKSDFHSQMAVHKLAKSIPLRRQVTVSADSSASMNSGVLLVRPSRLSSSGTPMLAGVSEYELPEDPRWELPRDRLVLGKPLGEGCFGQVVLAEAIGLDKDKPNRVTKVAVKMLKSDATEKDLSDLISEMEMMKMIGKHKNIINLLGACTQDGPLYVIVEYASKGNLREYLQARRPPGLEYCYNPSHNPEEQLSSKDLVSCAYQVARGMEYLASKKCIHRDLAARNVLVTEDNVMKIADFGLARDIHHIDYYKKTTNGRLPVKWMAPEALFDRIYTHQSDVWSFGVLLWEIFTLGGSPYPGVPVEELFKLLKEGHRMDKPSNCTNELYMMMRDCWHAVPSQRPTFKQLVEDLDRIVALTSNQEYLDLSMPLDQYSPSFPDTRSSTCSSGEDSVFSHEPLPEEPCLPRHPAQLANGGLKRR
Description: as §1

Data set [5] deals with VEGFR 1 (Homo sapiens, UniProt P17948). Put plainly: kinase selectivity profile. It counts as biochemical.
VEGFR 1, sequence (P17948 27-1338): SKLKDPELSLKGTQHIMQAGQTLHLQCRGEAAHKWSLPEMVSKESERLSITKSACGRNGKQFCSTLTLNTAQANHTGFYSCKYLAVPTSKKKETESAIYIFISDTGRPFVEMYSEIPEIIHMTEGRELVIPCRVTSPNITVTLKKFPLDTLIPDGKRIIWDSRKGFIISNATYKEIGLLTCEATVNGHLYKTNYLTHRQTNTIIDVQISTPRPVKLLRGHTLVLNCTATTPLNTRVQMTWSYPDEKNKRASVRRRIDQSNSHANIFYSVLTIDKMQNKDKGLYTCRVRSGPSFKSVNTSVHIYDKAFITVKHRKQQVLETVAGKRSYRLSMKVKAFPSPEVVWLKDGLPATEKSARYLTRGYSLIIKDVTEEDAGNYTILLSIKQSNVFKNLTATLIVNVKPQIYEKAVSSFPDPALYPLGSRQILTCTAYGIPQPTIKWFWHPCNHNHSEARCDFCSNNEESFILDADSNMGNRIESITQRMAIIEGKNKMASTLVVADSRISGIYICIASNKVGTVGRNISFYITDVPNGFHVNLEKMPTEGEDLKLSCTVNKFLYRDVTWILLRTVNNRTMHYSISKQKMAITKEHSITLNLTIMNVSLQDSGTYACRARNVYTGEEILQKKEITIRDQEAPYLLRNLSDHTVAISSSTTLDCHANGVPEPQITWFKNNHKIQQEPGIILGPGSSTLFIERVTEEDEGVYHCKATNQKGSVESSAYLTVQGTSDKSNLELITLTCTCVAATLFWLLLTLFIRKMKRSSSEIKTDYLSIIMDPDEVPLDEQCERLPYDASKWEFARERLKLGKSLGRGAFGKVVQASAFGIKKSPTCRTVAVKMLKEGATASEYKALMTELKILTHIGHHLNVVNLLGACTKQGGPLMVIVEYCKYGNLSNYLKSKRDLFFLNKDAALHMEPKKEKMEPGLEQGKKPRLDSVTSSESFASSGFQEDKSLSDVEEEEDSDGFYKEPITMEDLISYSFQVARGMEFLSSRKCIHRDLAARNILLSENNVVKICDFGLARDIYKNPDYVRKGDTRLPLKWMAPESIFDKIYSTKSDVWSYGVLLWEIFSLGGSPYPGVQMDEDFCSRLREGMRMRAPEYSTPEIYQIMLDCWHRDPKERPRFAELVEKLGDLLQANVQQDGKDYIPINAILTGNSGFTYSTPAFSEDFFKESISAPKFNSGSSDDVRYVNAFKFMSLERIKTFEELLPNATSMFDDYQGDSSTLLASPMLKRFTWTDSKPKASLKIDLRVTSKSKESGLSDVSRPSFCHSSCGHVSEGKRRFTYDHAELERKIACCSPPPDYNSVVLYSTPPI
Description: as §1

Data set [6] deals with TrkB (Homo sapiens, UniProt Q16620). Put plainly: kinase selectivity profile. It counts as biochemical.
TrkB, sequence (Q16620 32-822): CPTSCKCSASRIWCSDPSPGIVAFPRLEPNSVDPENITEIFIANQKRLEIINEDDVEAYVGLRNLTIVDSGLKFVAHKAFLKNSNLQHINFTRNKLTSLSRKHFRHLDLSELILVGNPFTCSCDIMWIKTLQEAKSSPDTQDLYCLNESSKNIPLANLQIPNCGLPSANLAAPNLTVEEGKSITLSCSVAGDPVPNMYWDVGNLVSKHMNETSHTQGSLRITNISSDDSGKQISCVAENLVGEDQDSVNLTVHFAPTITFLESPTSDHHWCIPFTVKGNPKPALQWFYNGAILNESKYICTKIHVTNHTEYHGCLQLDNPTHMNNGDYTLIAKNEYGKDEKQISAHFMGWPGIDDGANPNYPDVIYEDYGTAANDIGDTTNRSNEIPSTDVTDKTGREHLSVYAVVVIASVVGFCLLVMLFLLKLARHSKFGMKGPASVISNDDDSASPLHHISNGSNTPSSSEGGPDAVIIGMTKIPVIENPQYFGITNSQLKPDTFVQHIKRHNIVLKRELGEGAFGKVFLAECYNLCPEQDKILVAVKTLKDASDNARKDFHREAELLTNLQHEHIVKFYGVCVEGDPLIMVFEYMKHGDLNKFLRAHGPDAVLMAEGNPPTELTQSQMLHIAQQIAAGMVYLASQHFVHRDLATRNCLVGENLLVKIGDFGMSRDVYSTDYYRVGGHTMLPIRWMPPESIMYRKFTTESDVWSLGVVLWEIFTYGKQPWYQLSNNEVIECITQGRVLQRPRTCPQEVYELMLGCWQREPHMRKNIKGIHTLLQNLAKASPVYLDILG
Description: as §1

Data set [7] concerns the target T1, FLT3 (Homo sapiens, UniProt P36888).
T1 sequence (P36888 27-993): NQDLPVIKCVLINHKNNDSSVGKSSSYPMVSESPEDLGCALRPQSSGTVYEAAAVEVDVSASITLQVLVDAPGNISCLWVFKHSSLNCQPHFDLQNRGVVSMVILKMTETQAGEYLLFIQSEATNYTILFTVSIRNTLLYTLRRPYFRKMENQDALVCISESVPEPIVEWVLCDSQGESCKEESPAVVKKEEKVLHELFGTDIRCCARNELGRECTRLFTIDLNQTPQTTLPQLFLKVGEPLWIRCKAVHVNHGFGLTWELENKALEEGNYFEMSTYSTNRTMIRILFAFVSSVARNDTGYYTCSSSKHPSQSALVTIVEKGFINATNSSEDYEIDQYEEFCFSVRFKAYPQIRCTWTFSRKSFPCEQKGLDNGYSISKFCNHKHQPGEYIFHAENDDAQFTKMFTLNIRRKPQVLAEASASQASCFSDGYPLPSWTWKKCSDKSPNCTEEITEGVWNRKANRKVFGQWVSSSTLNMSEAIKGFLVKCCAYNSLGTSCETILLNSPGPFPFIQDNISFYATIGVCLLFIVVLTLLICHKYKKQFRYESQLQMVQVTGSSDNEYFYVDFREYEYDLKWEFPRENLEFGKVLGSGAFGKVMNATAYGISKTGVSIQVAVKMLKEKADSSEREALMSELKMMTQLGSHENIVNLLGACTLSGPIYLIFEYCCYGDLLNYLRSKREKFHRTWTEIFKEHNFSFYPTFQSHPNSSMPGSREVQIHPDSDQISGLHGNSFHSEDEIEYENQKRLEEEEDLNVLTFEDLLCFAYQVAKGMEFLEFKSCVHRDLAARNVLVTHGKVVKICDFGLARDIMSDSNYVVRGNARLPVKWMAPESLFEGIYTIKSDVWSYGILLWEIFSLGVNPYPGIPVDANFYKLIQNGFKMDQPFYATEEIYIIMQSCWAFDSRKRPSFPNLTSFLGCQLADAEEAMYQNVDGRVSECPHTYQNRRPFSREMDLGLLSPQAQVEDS
Put plainly: kinase selectivity profile. Format: biochemical.
Description: as §1

Data set [8] has as its target CSF1R (Homo sapiens, UniProt P07333). Briefly: kinase selectivity profile. It counts as biochemical.
Description: as §1

Data set [9] deals with VEGFR 2 (Homo sapiens, UniProt P35968). Briefly: kinase selectivity profile. Format: biochemical.
Description: as §1

Data set [10] deals with VEGFR 3 (Homo sapiens, UniProt P35916). Put plainly: kinase selectivity profile. Format: biochemical.
Description: as §1

Data set [11] deals with GI and lung NET patients. Set-up: method as in PMID 26703889. As to conditions: phase III trial; cited from earlier work.
Data set [12] relates to pancreatic NET patients. Further details: method as in PMID 21306238. As to conditions: phase III trial; cited from earlier work.
Data set [13] relates to pancreatic NET patients. Set-up: method as in PMID 21306237. The following applies: phase III trial; cited from earlier work.
[14] abbreviates: three NET patients who progressed on prior VEGFR kinase inhibitors.

pIC50: −log10 of the molar value. Where two headings read alike, the source gives them in different places.

CSF1R, sequence (P07333 20-972): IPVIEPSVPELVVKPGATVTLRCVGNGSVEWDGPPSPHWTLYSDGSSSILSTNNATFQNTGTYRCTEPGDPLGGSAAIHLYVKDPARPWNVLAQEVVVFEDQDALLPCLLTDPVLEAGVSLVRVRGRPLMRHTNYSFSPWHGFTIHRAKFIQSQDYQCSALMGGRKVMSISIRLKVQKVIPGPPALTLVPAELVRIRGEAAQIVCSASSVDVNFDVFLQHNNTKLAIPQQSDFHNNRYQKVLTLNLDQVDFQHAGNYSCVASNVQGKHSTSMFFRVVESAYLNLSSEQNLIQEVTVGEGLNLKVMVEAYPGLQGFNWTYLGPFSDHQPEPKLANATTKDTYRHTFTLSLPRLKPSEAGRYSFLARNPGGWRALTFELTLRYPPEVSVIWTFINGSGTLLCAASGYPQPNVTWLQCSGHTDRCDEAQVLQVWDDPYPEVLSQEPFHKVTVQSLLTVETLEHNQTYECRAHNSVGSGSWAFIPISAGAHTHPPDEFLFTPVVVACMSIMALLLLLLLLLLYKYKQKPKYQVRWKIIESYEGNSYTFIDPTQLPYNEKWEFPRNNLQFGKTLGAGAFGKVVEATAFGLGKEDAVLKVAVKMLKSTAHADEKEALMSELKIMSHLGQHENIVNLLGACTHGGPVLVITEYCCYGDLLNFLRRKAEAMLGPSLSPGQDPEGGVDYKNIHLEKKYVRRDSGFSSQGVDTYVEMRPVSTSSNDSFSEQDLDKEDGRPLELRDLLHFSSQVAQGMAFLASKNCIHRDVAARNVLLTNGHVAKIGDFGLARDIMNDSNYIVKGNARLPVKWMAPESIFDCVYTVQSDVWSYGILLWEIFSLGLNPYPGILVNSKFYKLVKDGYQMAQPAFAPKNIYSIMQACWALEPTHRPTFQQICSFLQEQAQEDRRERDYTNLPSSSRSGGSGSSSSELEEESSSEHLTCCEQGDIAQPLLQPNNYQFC

As usually defined, the pIC50 is the IC50 on a negative log10 scale, so that one unit is a factor of ten. Low readings indicate a large IC50, high ones a small IC50. In the case of `Cc1cc2cc(Oc3ccnc(Nc4cccc(CS(=O)(=O)NCCN(C)C)c4)n3)ccc2[nH]1` [Sulfatinib], the “maximum tolerated dose (MTD)” value in data set [1] is listed as “not reached”. In addition, the “patients with confirmed PR” value in data set [2] (all 77 patients) is recorded as “Nine”. In addition, in data set [2] (all 77 patients), the “patients with sustainable SD” value worked out at 23. The “objective response rate (ORR)” value in [2] (all 77 patients (9/77)) came to 11.7%. For the same compound, in data set [2] (all 77 patients (32/77)), the “disease control rate (DCR)” value turned out to be 41.6%. Also, the “patients achieving PR” value in [2] (setting [14]) was “one”. Also, in data set [2] (setting [14]), the “patients achieving SD” value is “two”. Further, the pIC50 in data set [3] is less than 6.82; in data set [4], 7.82; in data set [5], 8.70; in [6], 7.39; in data set [7], 7.17; in data set [8] it was 8.40. For the same compound, the values for the pIC50 in data set [9] and in data set [10] were 7.62 and 9.00, respectively.
`CO[C@H]1C[C@@H]2CC[C@@H](C)[C@@](O)(O2)C(=O)C(=O)N2CCCC[C@H]2C(=O)O[C@H]([C@H](C)C[C@@H]2CC[C@@H](OCCO)[C@H](OC)C2)CC(=O)[C@H](C)/C=C(\C)[C@@H](O)[C@@H](OC)C(=O)[C@H](C)C[C@H](C)/C=C/C=C/C=C/1C` [everolimus]: in data set [11], the ORR is listed as 2% and the “median PFS” value was 11.0 months. Besides, in data set [12], the ORR is recorded as 5% and the “median PFS” value was 11.0 months.
`CCN(CC)CCNC(=O)c1c(C)[nH]c(/C=C2\C(=O)Nc3ccc(F)cc32)c1C` [sunitinib]: in data set [13], the ORR is recorded as 9.3% and the PFS was 11.0 months.

The values are drawn from article PMC5522050, “Sulfatinib, a novel kinase inhibitor, in patients with advanced solid tumors: results from a phase I study” (Oncotarget, 2017).
